# Assays:
# [1] = test system: R1 rhabdomyosarcoma tumor fragment implanted in liver; test: PDT with single implanted LED light source proximal to tumor-feeding vessel in rat liver tumor model; assay type: in vivo, WAG/Rij rats
# Procedure: A study was carried out to explore whether placement of a single light source in proximity to an identified tumor-feeding vessel could result in effective treatment of larger volumes of the organ in which there was neoplasia than might be achieved using direct PDT on tumor tissue itself.
# Methods. The liver of each of 20 WAG/Rij rats was implanted with a R1 rhabdomyosarcoma tumor fragment. […] A 10×1.5 mm LED light source was implanted in the liver proximal to an upstream feeding vessel. LEDs were placed at a distance ≧5 mm from the tumor to ensure that the tumor itself was outside the direct illumination effect of the PDT. After a 10-minute drug-light interval, a light dose totaling 200 J/cm was administered. Animals were sacrificed at various time points, up to 10 days post treatment, and the extent and the mechanism of cell death was evaluated histologically using TUNEL [TdT-mediated dUTP-X nick end labeling] and EM [Electron Microscopy].
# [2] = test system: targeted tumors, including liver metastases arising from various primaries; conditions: clinical tests, PDT; Cancer 2003; 98:1767-71; cited from earlier work
smiles,measurement,setting,value
C=Cc1c(C)c2cc3nc(c(CC(=O)N[C@@H](CC(=O)O)C(=O)O)c4[nH]c(cc5nc(cc1[nH]2)C(C)=C5CC)c(C)c4C(=O)O)[C@@H](CCC(=O)O)[C@@H]3C [Talaporfin Sodium],"cell death in tumors implanted downstream from the targeted vessel (TUNEL, EM)","[1]; 5 mg/kg i.v. tail vein, 10-minute drug-light interval, 200 J/cm, LED ≧5 mm from tumor",cell death was consistently induced by a predominantly apoptotic mechanism
same,cell death in tumors similarly close to light source but vascularized by vessels other than the one targeted,"[1]; 5 mg/kg i.v., 200 J/cm",no cell death was observed
same,time cell death first observed after PDT (TUNEL),"[1]; 5 mg/kg i.v., 200 J/cm, tumors downstream from targeted vessel",2 days
same,closure of larger blood vessels / extended PDT effect,[1]; dosed at 2 mg/kg or less,not sufficient to close larger blood vessels
same,extent of PDT treatment effect,[1]; dosed at 2 mg/kg or less,restricted to the immediate vicinity of the illumination
same,objective response rates in targeted tumors,[2],33-50%

# Source: patent US20090192209A1, “Extended treatment of tumors through vessel occlusion with light activated drugs” (Light Sciences Oncology, Inc., priority 2004, published 2009)
